The nature of data set [1]: Pharmacokinetic analysis with prodrugs in rats. The data set is classed as in vivo, SD rats. Conditions: male, Sprague-Dawley, rat, plasma. As to the method:
3 male SD rats, each weighing 180 to 240 g, were fasted overnight with water access. After a single intravenous administration of a prodrug at 10 mg/kg to rats, the plasma concentrations of the prodrug and the active form were each measured by LC-MS/MS, and the pharmacokinetic parameters were analyzed.

A short description of data set [2]: Righting reflex experiment on mice with prodrugs. The data set is classed as in vivo. To be noted: both sexes, ICR, mouse, in vivo, mice; for MTD: intravenous, prodrugs; for LD50: intravenous injection, prodrugs in physiological saline. As to the method:
(§1) After adapting to the laboratory environment, the SPF-grade ICR mice were fasted for 12 hours.

The test system of data set [3] is ICR mice. Briefly: Righting reflex experiment on mice with prodrugs. In kind it is in vivo. To be noted: for ED50: Mus musculus, prodrugs formulated with physiological saline, read-out: ED50; for ED50 / Anesthesia induction time / Anesthesia maintenance time: intravenous injection; for SI: safety index, LD5/ED95, mice; for TI: therapeutic index, LD50/ED50, mice. As to the method:
as §1

Data set [4] in a line: Efficacy experiment on rats with prodrugs. The data set is classed as in vivo. To be noted: both sexes, Sprague-Dawley, rat, in vivo, intravenous, SD rats; for LD50: tail vein, non-linear fitting. As to the method:
(§2) This experiment selected SD rats, each weighing 180 to 200 g. The rats were randomized, with 10 animals per group, half male and half female. […] The time of administration, time of loss of the righting reflex, time of recovery of the righting reflex, and time of walking were recorded. Adverse effects shown by the rats after administration were also recorded.
(§3) Time of loss of the righting reflex: the righting reflex is lost; a rat made lying on its back can maintain the lying for a period of 60 s;
(§4) Time of recovery of the righting reflex: the righting reflex ability is restored; a rat made lying on its back rights in less than 2 s;
(§5) Time of walking: spontaneous forwarding moving occurs, and muscle tension of the limbs recovers.
(§6) Using GraphPad Prism 5, ED50 and LD50 values were calculated from a non-linear fitting of number of anesthetic or dead animals resulting from various doses.

A further data set concerns SD rats. Briefly: Efficacy experiment on rats with prodrugs. The data set is classed as in vivo. To be noted: for ED50: Rattus norvegicus, non-linear fitting; for ED50 / Anesthesia induction time / Anesthesia maintenance time: SD rats, tail vein; for TI: therapeutic index, LD50/ED50, rats. As to the method:
as §2, §3, §4, §5, §6

Data set [5] in a line: Righting reflex experiment on mice. Conditions: both, ICR, mouse, in vivo; for MTD: intravenous; for LD50: iv. As to the method:
(§7) LD5 (5% lethal dose): dose required to cause 5% of mice to die in a test.
(§8) If a normal animal was able to immediately turn its body to normal upright position after being pushed over or made lying on its back, such a reflex was determined as the righting reflex. Otherwise, loss of the righting reflex and the time of loss were recorded, and a reflex recovery time was recorded when the animal restored the righting reflex. The period from finishing of drug administration until loss of the righting reflex was recorded as the anesthesia induction time, and the period from loss of the righting reflex until recovery of the righting reflex was recorded as the anesthesia maintenance time.
(§9) TI (therapeutic index, i.e. LD50/ED50), SI (safety index, i.e. LD5/ED95).
(§10) MTD (maximum tolerated dose): the maximum dose able to cause 100% to loss the righting index without death.
(§11) Indicators such as median effective dose (ED50), median lethal dose (LD50), therapeutic index (TI, i.e. LD50/ED50), safety index (SI, i.e. LD5/ED95), anesthesia induction time, anesthesia maintenance time, and maximum tolerated dose (MTD) were used to evaluate the effect and safety of anesthesia. […] After adapting to the laboratory environment, laboratory animals were fasted for 12 hours. On the next day, administration was carried out at 10 mg/kg body weight. Upon intravenous injection, the time of loss of the righting reflex was recorded. The period from finishing of drug administration until loss of the righting reflex was recorded as the anesthesia induction time, and the period from loss of the righting reflex until recovery of the righting reflex was recorded as the anesthesia maintenance time. The anesthesia induction time and the anesthesia maintenance time were used to indicate how strong an anesthetic effect was. Meanwhile, the dose required to cause a 7-min anesthesia (HD7) was measured and used to evaluate relative efficacy.

Data set [6] deals with ICR mice. Briefly: Righting reflex experiment on mice. Conditions: for ED50: Mus musculus, iv; for Anesthesia induction time / Anesthesia maintenance time / HD7: mice; for Anesthesia induction time / Anesthesia maintenance time: intravenous injection; for Anesthesia induction time: end of administration until loss of righting reflex; for Anesthesia maintenance time: loss until recovery of righting reflex; for HD7: dose required to cause a 7-min anesthesia; for SI: safety index, LD5/ED95, mice; for TI: therapeutic index, LD50/ED50, mice. As to the method:
as §7, §8, §9, §10, §11

Data set [7] in a line: Pharmacokinetic experiment on rats. The data set is classed as in vivo, SD rats. To be noted: male, Sprague-Dawley, rat, plasma; Intravenous Injection into Rats (1 mg/kg). As to the method: 3 male SD rats, each weighing 180 to 240 g, were fasted overnight with water access. A 1 mL/kg solution of the compound was formulated with 10% DMA, 20% solutol HS-15 (30%, w/v) and 70% physiological saline. Blood was sampled before administration and 2 min, 4 min, 8 min, 12 min, 15 min, 30 min, 1 h, 1.5 h and 2 h after administration. Blood samples were centrifuged at 5500 rpm for 10 min, and plasma was collected and stored at −40° C. 10 μl rat plasma from each time point was added to a 200 μl acetonitrile solution containing an internal standard and mixed, followed by 1-min vortexing and 18-min centrifugation at 3700 rpm. Then 70 μl supernatant was mixed with 70 μl water, and 10 μl of the mixture was analyzed by LC-MS/MS. Major pharmacokinetic parameters were subjected to a non-compartment analysis with the software WinNonlin 6.3.

For a further data set, the system named is Beagle dogs. Briefly: Haemodynamic effects in Beagle dogs. The data set is classed as in vivo. To be noted: for Dose required to produce the same anesthetic effect: Beagle dogs, intravenous emulsion for injection. As to the method:
Data of various indicators such as electrocardiogram, blood pressure and body temperature of the animals were continuously collected from about 3.5 hours before administration until 6 hours after administration.

The next data set deals with GABAA receptors. Conditions: CHO/GABAA; for EC50: enhancement of muscimol-induced GABAA receptor current, whole-cell patch-clamp.
For data set [8] the following is noted: injection; cited from earlier work.
Setting [9] is: Intravenous Injection into Rats (10 mg/kg), analyte: prodrug.

Some results are limits rather than exact numbers.

Experimental for GABAA receptors: Various concentrations of test compounds and muscimol were added together to CHO/GABAA, and the current mediated by GABAA receptors was measured. Two measurements were performed for each concentration to obtain an average response current. The enhancement of the current mediated by GABAA receptors was calculated by the following equation: Enhancement (%)=100*(Test Compound−Control)/Control
The Control group is the peak current amplitude induced by muscimol, and the Test Compound group is the peak current amplitude co-induced by the test compounds and muscimol. The enhancement (%) was calculated for each concentration, and EC50 was calculated by normalization.

As a reminder, the AUC(0-t) is exposure summed from dosing to a finite time, without extrapolation to infinity. A word on the clearance: it is a measure of how efficiently the substance is removed, as volume per time. The half-life is how long it takes for the measured level to halve. What is called LD50 is the dose at which mortality reaches 50%. As a reminder, the ED50 is the dose at which the effect has come halfway, by size or by number of responders. Turning to `CC(C)c1cccc([C@H](C)C2CC2)c1OP(=O)(O)O` [Compound 46, [[2-[(1R)-1-cyclopropylethyl]-6-isopropyl-phenoxy]-sodiooxy-phosphoryl]oxysodium], in data set [1] (setting [9]), the AUC(0-t) came to 22400 ng·h/mL, the clearance is 6.1 mL/min/kg and the half-life is 54 min. Moreover, in [2], the MTD stood at 200 mg/kg and the LD50 turned out to be 225 mg/kg. Also, the ED50 in the data set with ICR mice [3] (mice) came out at 72.6 mg/kg. Also, in the data set on ICR mice [3] (mice, prodrugs), the Anesthesia induction time turned out to be 167.0 s and the Anesthesia maintenance time is 2204.6 s. Besides, in the data set with ICR mice [3] (prodrugs), the SI turned out to be 2.4 and the TI was 3.1.
For the compound `CC(C)c1cccc([C@H](C)C2CC2)c1OCOP(=O)([O-])[O-].[Na+].[Na+]` [Compound 52], in data set [1] (setting [9]), the AUC(0-t) stood at 15900 ng·h/mL, the clearance was determined as 10.5 mL/min/kg and the half-life is 24 min. Further, the LD50 in [2] is 86.2 mg/kg. In the data set on ICR mice [3] (mice), the ED50 is 20.4 mg/kg. For the same compound, in the data set on ICR mice [3] (mice, prodrugs), the Anesthesia induction time is reported as 73.0 s, the Anesthesia maintenance time worked out at 1830.2 s and the MTD is given as 60.0 mg/kg. Also, in the data set on ICR mice [3] (prodrugs), the SI is 3.3 and the TI amounted to 4.2. In addition, in [4], the MTD was 30 mg/kg and the LD50 is 61.4 mg/kg. Further, in the data set on SD rats, the ED50 fell in the range of 12.5 to 15 mg/kg, the Anesthesia induction time came to 92.8 s and the Anesthesia maintenance time is 1946.3 s.
By EC50 is commonly meant the concentration giving half of the maximal effect. In [5], `CC(C)c1cccc([C@H](C)C2CC2)c1O` [Compound 16, 2-[(1R)-1-cyclopropylethyl]-6-isopropyl-phenol] yielded an MTD of 6 mg/kg and an LD50 of 9.9 mg/kg. Also, in the data set with ICR mice [6], the ED50 came out at 1.5 mg/kg, the Anesthesia induction time is less than 15.0 s, the Anesthesia maintenance time was 631.9 s and the HD7 worked out at 3.5 mg/kg. In the data set with ICR mice [6], the SI came to 4.1 and the TI is 6.7. In [7], this compound showed an AUC(0-t) of 168 ng·h/mL, a clearance of 105 mL/min/kg and a half-life of 30 min. Besides, the “Dose required to produce the same anesthetic effect” value with Beagle dogs was found to be 2 mg/kg. In addition, the “Effect on the heart rate and blood pressure” value in the data set with Beagle dogs (conscious Beagle dogs, Compound 16 2 mg/kg vs propofol 10 mg/kg) is “smaller than that of propofol”. In the data set with GABAA receptors (patch clamp), the “Activity compared with propofol” value is given as “lower ED50” and the “Effect on the ion channels of GABAA receptors” value is “activating effect”. Moreover, the EC50 with GABAA receptors came to 1.1 µM.
In data set [5], `COc1cccc(C(C)C2CC2)c1O` (stereo not drawn) [Compound 8, 2-(1-cyclopropylethyl)-6-methoxy-phenol] had an MTD of 40 mg/kg and an LD50 of 67 mg/kg. In the data set with ICR mice [6], the ED50 came to 7.3 mg/kg, the Anesthesia induction time is recorded as less than 15.0 s, the Anesthesia maintenance time turned out to be 394.8 s and the SI was determined as 7.0. Moreover, the TI in the data set with ICR mice [6] is given as 9.1. In [7], this compound gave an AUC(0-t) of 132 ng·h/mL, a clearance of 119 mL/min/kg and a half-life of 48 min.
Consider `CC(C)c1cccc(C(C)C)c1O` [Propofol, reference compound], for which, in the data set with ICR mice [6], the 50% effective dose (ED50) turned out to be 11.7 mg/kg, the Anesthesia induction time is less than 15.0 s, the Anesthesia maintenance time worked out at 652.5 s and the HD7 was 14.0 mg/kg. The same compound yielded a TI in the data set with ICR mice [6] of 2.7. Moreover, in data set [7], the AUC(0-t) was determined as 81.9 ng·h/mL, the clearance stood at 204 mL/min/kg and the half-life was 42 min. In [1] (iv, 10 mg/kg), the AUC(0-t) was found to be 81.9 ng·h/mL, the clearance turned out to be 204 mL/min/kg and the half-life was 42 min. Further, the ED50 with ICR mice [3] (mice) turned out to be 11.7 mg/kg. In the data set on ICR mice [3] (mice, prodrugs), the Anesthesia induction time was less than 15.0 s, the Anesthesia maintenance time is reported as 652.5 s and the MTD is reported as 20.0 mg/kg. The TI with ICR mice [3] (prodrugs) was found to be 2.7. In data set [4], the MTD was 12.5 mg/kg and the LD50 was 19.1 mg/kg. Moreover, in the data set with SD rats, the ED50 was 5.7 mg/kg, the Anesthesia induction time is given as 0.0 s, the Anesthesia maintenance time was found to be 652.0 s and the TI is given as 3.4. For the same compound, the “Dose required to produce the same anesthetic effect” value in the data set with Beagle dogs came out at 10 mg/kg. Besides, in the data set with GABAA receptors (patch clamp), the “Effect on the ion channels of GABAA receptors” value was “activating effect”. Further, the EC50 in the data set with GABAA receptors amounted to 5.3 µM. Also, the “Patients on injections feeling certain pain or discomfort” value in data set [8] is reported as “approximately 70%”.
On to `CC(C)c1cccc([C@H](C)C2CC2)c1OCOC(=O)[C@H](Cc1ccccc1)NC(=O)OC(C)(C)C` [Compound 61, [2-[(1R)-1-cyclopropylethyl]-6-isopropyl-phenoxy]methyl(2S)-2-(tertbutoxycarbonylamino)-3-phenyl-propanoate], for which, in data set [2], the MTD turned out to be 40 mg/kg and the LD50 was 87.4 mg/kg. In the data set with ICR mice [3] (mice), the ED50 was found to be 6.1 mg/kg. Moreover, in the data set on ICR mice [3] (mice, prodrugs), the Anesthesia induction time worked out at 17.5 s; the Anesthesia maintenance time was 1109.2 s; the “ED50 and efficacy compared with propofol” value is “smaller ED50 value and higher efficacy than propofol”. Moreover, in the data set on ICR mice [3] (prodrugs), the SI was determined as 3.7 and the TI was found to be 14.4. Moreover, in [4], the MTD is 40 mg/kg and the LD50 worked out at 60.8 mg/kg. Besides, in the data set with SD rats, the ED50 came out at 6.5 mg/kg, the Anesthesia induction time is listed as 0.0 s, the Anesthesia maintenance time amounted to 1474.9 s and the TI came out at 9.4. In addition, the “ED50 and efficacy compared with propofol” value with SD rats (rats, prodrugs) was “smaller ED50 and higher efficacy than propofol”. Moreover, in the data set on SD rats (safety index, LD5/ED95, rats), the SI turned out to be 6.3.

The record behind these values is patent publication US9517988B2 (Sichuan Haisco Pharmaceutical Co., Ltd., priority 2013, dated 2016).
